SMILES strings stand for the structures.

The values below come from US20110230428A1, “CERTAIN KYNURENINE-3-MONOOXYGENASE INHIBITORS, PHARMACEUTICAL COMPOSITIONS, AND METHODS OF USE THEREOF” (priority 2008, published 2011).

T1 sequence (Q91WN4 whole entry): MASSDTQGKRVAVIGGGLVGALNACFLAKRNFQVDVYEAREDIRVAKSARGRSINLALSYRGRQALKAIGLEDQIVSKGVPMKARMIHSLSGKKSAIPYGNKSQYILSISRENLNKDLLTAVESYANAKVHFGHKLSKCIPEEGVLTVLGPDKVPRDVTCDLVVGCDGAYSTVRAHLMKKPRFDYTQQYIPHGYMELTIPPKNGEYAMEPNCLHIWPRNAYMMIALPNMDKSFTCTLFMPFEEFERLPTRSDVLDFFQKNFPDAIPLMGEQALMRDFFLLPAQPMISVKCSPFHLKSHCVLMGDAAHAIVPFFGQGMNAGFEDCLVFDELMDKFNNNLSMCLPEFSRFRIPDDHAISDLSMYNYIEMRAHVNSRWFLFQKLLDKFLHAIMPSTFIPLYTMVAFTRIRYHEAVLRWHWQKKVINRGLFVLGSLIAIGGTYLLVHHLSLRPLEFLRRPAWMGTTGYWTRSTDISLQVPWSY

This experiment concerns the target T1, KMO mouse enzyme (Mus musculus, UniProt Q91WN4).
T1 construct: KMO enzyme prepared at Evotec from mouse liver (4-6 weeks old) via mitochondria isolation; from tissue; host or cells: mouse liver (4-6 weeks old), isolated mitochondria
Briefly: KMO mouse enzyme assay: L-Kynurenine hydroxylation to 3OH-KYN by LC/MS. The format is biochemical. The following applies: compound at 10 μM; KMO from mouse liver mitochondria; read-out: INH.Mouse @ 10 μM. As for the experimental part:
A method of monitoring L-Kynurenine (KYN) hydroxylation to form 3-Hydroxy-Kynurenine (3OH-KYN) by LC/MS is described. Product is quantified by multiple reaction monitoring (MRM method).
• Compound: Stock concentrations: 10 mM in 100% DMSO • Enzyme: KMO enzyme prepared at Evotec from mouse liver (4-6 weeks old) via mitochondria isolation as described in the literature • Substrate: L-Kynurenine (Sigma: Cat# K3750, stock concentration: 10 mM in 100 mM potassium phosphate buffer, pH 7.4)
• Buffer: 100 mM potassium phosphate, pH 7.4, 200 μM NADPH, 0.4 U/ml G6P-DH (Glucose 6-phosphate Dehydrogenase), 3 mM G6P (D-Glucose 6-phosphate) • Assay Volume: 40 μl • Plate Format: 384 well plate, transparent (Matrix) • Read-Out: product (3OH-KYN) quantification using product specific MRM • Reader: LC/MS/MS
• prepare serial dilution (factor 3) of compound in 100% DMSO (top concentration=10 mM, 100% DMSO) • [8 points: 10 mM; 3.33 mM; 1.11 mM; 0.37 mM; 0.12 mM; 0.04 mM; 0.0137 mM; 0.0045 mM, 0.0015 mM] • prepare […] solution of each compound concentration (top concentration 300 μM, 3% DMSO) in assay buffer • [concentrations: 300 μM; 100 μM; 33.3 μM; 11.1 μM; 3.70 μM; 1.23 μM; 0.41 μM; 0.137 μM] • prepare substrate (10 mM) at concentration of 1 mM in assay buffer • assay mix: 4 μl compound/well of each concentration+24 μl assaybuffer/well+8 μl KMO mouse enzyme+4 μl 1 mM substrate (final concentration=100 μM) • [final compound top concentration: 30 μM; 0.3% DMSO] • [final compound bottom concentration: 0.0137 μM; 0.3% DMSO] • positive control: 4 μl 50 μM FCE28833 in assay buffer, 0.5% DMSO [final assay concentration=5 μM]+24 μl assaybuffer/well+8 μl KMO mouse enzyme+4 μl 1 mM substrate [final concentration=100 μM] • negative control: 28 μl assay buffer/well+8 μl KMO mouse enzyme+4 μl 1 mM substrate [final concentration=100 μM] • incubate 40 min at RT • add 40 μl/well 10% trichloro acetic acid in water to stop the assay and precipitate protein • centrifuge plate for 3 min at 4000 rpm • product detection by LC/MS (injection of 20 μl/well, 2 fold overfill of the 10 μl sample loop) Data analysis: IC50's are calculated using automated fitting algorithm (A+Analysis).
Using procedures similar to those described herein, the following compounds were assayed for activity.
As for `CON=C(CCc1noc(C)n1)c1ccc(Cl)c(Cl)c1` (single isomer, unassigned) [1-(3,4-Dichloro-phenyl)-3-(5-methyl-[1,2,4]oxadiazol-3-yl)-propan-1-one O-methyl-oxime], the inhibition at 10 µM is 87.2%.

Regarding `CON=C(CCc1nc2cnccc2[nH]1)c1ccc(Cl)c(Cl)c1` [1-(3,4-Dichloro-phenyl)-3-(1H-imidazo[4,5-c]pyridin-2-yl)-propan-1-one O-methyl-oxime], the inhibition at 10 µM stood at 64.3%. In the case of `CO/N=C(\CCc1nn[nH]n1)c1ccc(Cl)c(Cl)c1` [1-(3,4-Dichloro-phenyl)-3-(2H-tetrazol-5-yl)-propan-1-one O-methyl-oxime], the inhibition at 10 µM was found to be 96.4%. The same measure for `CON=C(CCC(=O)N1CCC(C)CC1)c1ccc(Cl)c(Cl)c1` [1-(3,4-Dichloro-phenyl)-4-(4-methyl-piperidin-1-yl)-butane-1,4-dione 1-(O-methyl-oxime)]: 57.3%; for `CO/N=C(\CCC(=O)N1CCOCC1)c1ccc(Cl)c(Cl)c1` [1-(3,4-Dichloro-phenyl)-4-morpholin-4-yl-butane-1,4-dione 1-(O-methyl-oxime)]: 63.4%.

In the case of `CON=C(CCC(=O)N1CCCCC1)c1ccc(Cl)c(Cl)c1` [1-(3,4-Dichloro-phenyl)-4-piperidin-1-yl-butane-1,4-dione 1-(O-methyl-oxime)], the inhibition at 10 µM was 60.4%. For `CON=C(CCC(C)=O)c1ccc(Cl)c(Cl)c1` [1-(3,4-Dichloro-phenyl)-pentane-1,4-dione 1-(O-methyl-oxime)] the value was 77.7%; for `CCO/N=C(\CCC(=O)OC)c1ccc(Cl)c(Cl)c1` [4-(3,4-Dichloro-phenyl)-4-ethoxyimino-butyric acid methyl ester], 107%.

For the molecule `CCO/N=C(\CCC(=O)O)c1ccc(Cl)c(Cl)c1` [4-(3,4-Dichloro-phenyl)-4-ethoxyimino-butyric acid], the inhibition at 10 µM was found to be 107%. For `COC(=O)CCC(=NO)c1ccc(Cl)c(Cl)c1` [4-(3,4-Dichloro-phenyl)-4-hydroxyimino-butyric acid methyl ester] the value was 99.4%. For `CO/N=C(\CCC(=O)N(C)C)c1ccc(Cl)c(Cl)c1` [4-(3,4-Dichloro-phenyl)-4-methoxyimino-N,N-dimethyl-butyramide] the value was 64.3%; for `CO/N=C(\CCC(=O)Nc1cnn(C)c1)c1ccc(Cl)c(Cl)c1` [4-(3,4-Dichloro-phenyl)-4-methoxyimino-N-(1-methyl-1H-pyrazol-4-yl)-butyramide], 90.5%. For `CON=C(CCC(=O)Nc1c(C)cc(C)nc1C)c1ccc(Cl)c(Cl)c1` [4-(3,4-Dichloro-phenyl)-4-methoxyimino-N-(2,4,6-trimethyl-pyridin-3-yl)-butyramide] the value was 66.3%; for `CON=C(CCC(=O)Nc1cnc(C)nc1)c1ccc(Cl)c(Cl)c1` [4-(3,4-Dichloro-phenyl)-4-methoxyimino-N-(2-methyl-pyrimidin-5-yl)-butyramide], 90.4%. Take `CON=C(CCC(=O)NCCN1CCOCC1)c1ccc(Cl)c(Cl)c1` [4-(3,4-Dichloro-phenyl)-4-methoxyimino-N-(2-morpholin-4-yl-ethyl)-butyramide]: the inhibition at 10 µM came to 54.6%. For `CON=C(CCC(=O)Nc1cnccc1C)c1ccc(Cl)c(Cl)c1` [4-(3,4-Dichloro-phenyl)-4-methoxyimino-N-(4-methyl-pyridin-3-yl)-butyramide] the value was 93.9%; for `CON=C(CCC(=O)Nc1cncc(C)c1)c1ccc(Cl)c(Cl)c1` [4-(3,4-Dichloro-phenyl)-4-methoxyimino-N-(5-methyl-pyridin-3-yl)-butyramide], 102%; for `CON=C(CCC(=O)Nc1ccc(C)nn1)c1ccc(Cl)c(Cl)c1` [4-(3,4-Dichloro-phenyl)-4-methoxyimino-N-(6-methyl-pyridazin-3-yl)-butyramide], 90.2%.
